Experimental data reported in patent US12599672B2, “KRAS proteolysis targeting chimeras” (PAQ Therapeutics Inc., priority 2023, dated 2026).

Key:
Format in all cases: cell-based
KRAS G12D = biological target: T1, KRAS G12D (Homo sapiens, UniProt P01116, G12D); assay: KRAS G12D HiBit assay; conditions: AsPc-1-KRAS (G12D)-HiBit-KI cell, compound treatment for 24 hours, absolute DC50
T1 construct: AsPc-1-KRAS (G12D)-HiBit-KI cell (Pharmaron); host or cells: AsPc-1-KRAS (G12D)-HiBit-KI cells (HiBiT knock-in at the endogenous KRAS locus)
T1 sequence (P01116 1-188 isoform P01116-2 G12D): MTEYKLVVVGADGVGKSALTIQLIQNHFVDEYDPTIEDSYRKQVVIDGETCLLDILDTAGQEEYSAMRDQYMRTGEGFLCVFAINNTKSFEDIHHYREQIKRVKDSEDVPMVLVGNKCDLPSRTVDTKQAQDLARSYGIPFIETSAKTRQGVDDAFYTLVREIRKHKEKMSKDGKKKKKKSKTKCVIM
Outline: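 Cells were treated for 24 h with compounds in a 3-fold, 10-point dilution series from a 0.3 mM DMSO stock, then equilibrated 15 min at room temperature. KRAS G12D HiBiT levels were read by luminescence after lytic Nano-Glo HiBiT reagent with LgBiT; inhibition calculated relative to 0.1% DMSO high control.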

KRAS G12V = biological target: T2, KRAS G12V (Homo sapiens, UniProt P01116, G12V); assay: KRAS G12V HiBit assay; conditions: SW620-KRAS (G12V)-HiBit-KI cells, compound treatment for 24 hours, class symbols
T2 construct: SW620-KRAS (G12V)-HiBit-KI cell (Pharmaron); host or cells: SW620-KRAS (G12V)-HiBit-KI cells (HiBiT knock-in at the endogenous KRAS locus)
T2 sequence (P01116 1-188 isoform P01116-2 G12V): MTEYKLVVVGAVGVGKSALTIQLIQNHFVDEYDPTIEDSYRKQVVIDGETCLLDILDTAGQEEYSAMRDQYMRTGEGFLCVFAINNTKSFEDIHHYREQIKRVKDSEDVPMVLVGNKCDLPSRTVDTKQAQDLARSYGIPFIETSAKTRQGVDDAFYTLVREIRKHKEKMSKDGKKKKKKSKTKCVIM
Outline: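 HiBiT-tagged KRAS G12V cells treated 24 h with compound in a 3-fold, 10-point series (0.3 mM DMSO stock); lytic HiBiT reagent with LgBiT added after 15 min room-temperature equilibration. Degradation calculated against 0.1% DMSO high control.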

KRAS = biological target: T3, KRAS (Homo sapiens, UniProt P01116); assay: KRASamp MSD assay; conditions: KE39 (KRAS amplified) cells, treated with test compounds for 24 hr, MSD readout of KRAS degradation
T3 construct: endogenous in cells; host or cells: KE39 (KRAS amplified) cells
T3 sequence (P01116 1-188 isoform P01116-2): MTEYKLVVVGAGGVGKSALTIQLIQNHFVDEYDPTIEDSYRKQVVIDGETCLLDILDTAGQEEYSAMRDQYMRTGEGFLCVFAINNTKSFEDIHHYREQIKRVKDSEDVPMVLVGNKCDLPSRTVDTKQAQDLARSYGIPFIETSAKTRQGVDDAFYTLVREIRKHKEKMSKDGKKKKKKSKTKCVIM
Outline: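 KRAS-amplified KE39 cells treated with compound for 24 hr, then lysed in RIPA buffer with protease/phosphatase inhibitors. KRAS protein measured by MSD sandwich immunoassay against a recombinant WT KRAS standard curve; DC50 derived from curve fitting of degradation.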

[1] = numeric bounds given in place of class symbols

| Structure (SMILES) | DC50 (KRAS G12D; [1]) | DC50 (KRAS G12V) | DC50 (KRAS) | DC50 (KRAS G12D; class symbols) |
| --- | --- | --- | --- | --- |
| CCc1c(F)ccc2cc(O)cc(-c3ncc4c(N5CC6(CCC6)C5)nc(OC[C@@]56CCCN5[C@H](COC(=O)N5CCC7(CC5)CC(N5CCC(c8ccc9c(c8)n(C)c(=O)n9C8CCC(=O)NC8=O)CC5)C7)CC6)nc4c3F)c12 (stereo partly drawn) [Compound 347, ((3S,7aS)-7a-(((7-(8-ethyl-7-fluoro-3-hydroxynaphthalen-1-yl)-8-fluoro-4-(2-azaspiro[3.3]heptan-2-yl)pyrido[4,3-d]pyrimidin-2-yl)oxy)methyl)hexahydro-1H-pyrrolizin-3-yl)methyl 2-(4-(1-(2,6-dioxopiperidin-3-yl)-3-methyl-2-oxo-2,3-dihydro-1H-benzo[d]imidazol-5-yl)piperidin-1-yl)-7-azaspiro[3.5]nonane-7-carboxylate] | > 100 nM | > 100 nM | ≥ 10 nM | – |
| CCc1c(F)ccc2cc(O)cc(-c3ncc4c(N5CCCC5)nc(OC[C@@]56CCCN5[C@H](COC(=O)N5CCC7(CC5)CC(N5CCC(c8ccc9c(c8)n(C)c(=O)n9C8CCC(=O)NC8=O)CC5)C7)CC6)nc4c3F)c12 (stereo partly drawn) [Compound 348, ((3S,7aS)-7a-(((7-(8-ethyl-7-fluoro-3-hydroxynaphthalen-1-yl)-8-fluoro-4-(pyrrolidin-1-yl)pyrido[4,3-d]pyrimidin-2-yl)oxy)methyl)hexahydro-1H-pyrrolizin-3-yl)methyl 2-(4-(1-(2,6-dioxopiperidin-3-yl)-3-methyl-2-oxo-2,3-dihydro-1H-benzo[d]imidazol-5-yl)piperidin-1-yl)-7-azaspiro[3.5]nonane-7-carboxylate] | > 100 nM | > 100 nM | ≥ 10 nM | – |
| CCc1c(F)ccc2cc(O)cc(-c3ncc4c(N5CC[C@H](O)C5)nc(OC[C@@]56CCCN5[C@H](COC(=O)N5CCC7(CC5)CC(N5CCC(c8ccc9c(c8)n(C)c(=O)n9C8CCC(=O)NC8=O)CC5)C7)CC6)nc4c3F)c12 (stereo partly drawn) [Compound 349, ((3S,7aS)-7a-(((7-(8-ethyl-7-fluoro-3-hydroxynaphthalen-1-yl)-8-fluoro-4-((S)-3-hydroxypyrrolidin-1-yl)pyrido[4,3-d]pyrimidin-2-yl)oxy)methyl)hexahydro-1H-pyrrolizin-3-yl)methyl 2-(4-(1-(2,6-dioxopiperidin-3-yl)-3-methyl-2-oxo-2,3-dihydro-1H-benzo[d]imidazol-5-yl)piperidin-1-yl)-7-azaspiro[3.5]nonane-7-carboxylate] | > 100 nM | 10 to 100 nM | 1 to 10 nM | – |
| CCc1c(F)ccc2cc(O)cc(-c3ncc4c(N5CC[C@@H](O)C5)nc(OC[C@@]56CCCN5[C@H](COC(=O)N5CCC7(CC5)CC(N5CCC(c8ccc9c(c8)n(C)c(=O)n9C8CCC(=O)NC8=O)CC5)C7)CC6)nc4c3F)c12 (stereo partly drawn) [Compound 350, ((3S,7aS)-7a-(((7-(8-ethyl-7-fluoro-3-hydroxynaphthalen-1-yl)-8-fluoro-4-((R)-3-hydroxypyrrolidin-1-yl)pyrido[4,3-d]pyrimidin-2-yl)oxy)methyl)hexahydro-1H-pyrrolizin-3-yl)methyl 2-(4-(1-(2,6-dioxopiperidin-3-yl)-3-methyl-2-oxo-2,3-dihydro-1H-benzo[d]imidazol-5-yl)piperidin-1-yl)-7-azaspiro[3.5]nonane-7-carboxylate] | – | < 10 nM | 1 to 10 nM | < 100 nM |
| CCc1c(F)ccc2cc(O)cc(-c3ccc4c(N5CCC[C@@](C)(O)C5)nc(OC[C@@]56CCCN5[C@H](COC(=O)N5CCC7(CC5)CC(N5CCC(c8ccc9c(c8)n(C)c(=O)n9C8CCC(=O)NC8=O)CC5)C7)CC6)nc4c3F)c12 (stereo partly drawn) [Compound 355, ((3S,7aS)-7a-(((7-(8-ethyl-7-fluoro-3-hydroxynaphthalen-1-yl)-8-fluoro-4-((R)-3-hydroxy-3-methylpiperidin-1-yl)quinazolin-2-yl)oxy)methyl)hexahydro-1H-pyrrolizin-3-yl)methyl 2-(4-(1-(2,6-dioxopiperidin-3-yl)-3-methyl-2-oxo-2,3-dihydro-1H-benzo[d]imidazol-5-yl)piperidin-1-yl)-7-azaspiro[3.5]nonane-7-carboxylate] | – | < 10 nM | < 1 nM | < 100 nM |
| CCc1c(F)ccc2cc(O)cc(-c3ncc4c(N5CCC(F)(F)CC5)nc(OC[C@@]56CCCN5[C@H](COC(=O)N5CCC7(CC5)CC(N5CCC(c8ccc9c(c8)n(C)c(=O)n9C8CCC(=O)NC8=O)CC5)C7)CC6)nc4c3F)c12 (stereo partly drawn) [Compound 357, ((3S,7aS)-7a-(((4-(4,4-difluoropiperidin-1-yl)-7-(8-ethyl-7-fluoro-3-hydroxynaphthalen-1-yl)-8-fluoropyrido[4,3-d]pyrimidin-2-yl)oxy)methyl)hexahydro-1H-pyrrolizin-3-yl)methyl 2-(4-(1-(2,6-dioxopiperidin-3-yl)-3-methyl-2-oxo-2,3-dihydro-1H-benzo[d]imidazol-5-yl)piperidin-1-yl)-7-azaspiro[3.5]nonane-7-carboxylate] | > 100 nM | > 100 nM | 1 to 10 nM | – |
| CCc1c(F)ccc2cc(O)cc(-c3ncc4c(N5CCCCC5)nc(OC[C@@]56CCCN5[C@H](COC(=O)N5CCC7(CC5)CC(N5CCC(c8ccc9c(c8)n(C)c(=O)n9C8CCC(=O)NC8=O)CC5)C7)CC6)nc4c3F)c12 (stereo partly drawn) [Compound 367, ((3S,7aS)-7a-(((7-(8-ethyl-7-fluoro-3-hydroxynaphthalen-1-yl)-8-fluoro-4-(piperidin-1-yl)pyrido[4,3-d]pyrimidin-2-yl)oxy)methyl)hexahydro-1H-pyrrolizin-3-yl)methyl 2-(4-(1-(2,6-dioxopiperidin-3-yl)-3-methyl-2-oxo-2,3-dihydro-1H-benzo[d]imidazol-5-yl)piperidin-1-yl)-7-azaspiro[3.5]nonane-7-carboxylate] | – | < 10 nM | < 1 nM | < 100 nM |
| C#Cc1c(F)ccc2cc(O)cc(-c3ncc4c(N5CCC[C@@](C)(O)C5)nc(OC[C@@]56CCCN5[C@H](COC(=O)N5CCC(OCCC#Cc7ccc8c(c7)n(C)c(=O)n8C7CCC(=O)NC7=O)CC5)CC6)nc4c3F)c12 (stereo partly drawn) [Compound 369, ((3S,7aS)-7a-(((7-(8-ethynyl-7-fluoro-3-hydroxynaphthalen-1-yl)-8-fluoro-4-((R)-3-hydroxy-3-methylpiperidin-1-yl)pyrido[4,3-d]pyrimidin-2-yl)oxy)methyl)hexahydro-1H-pyrrolizin-3-yl)methyl 4-((4-(1-(2,6-dioxopiperidin-3-yl)-3-methyl-2-oxo-2,3-dihydro-1H-benzo[d]imidazol-5-yl)but-3-yn-1-yl)oxy)piperidine-1-carboxylate] | – | < 10 nM | 1 to 10 nM | < 100 nM |
| CCc1c(F)ccc2cc(O)cc(-c3ncc4c(N5CCC[C@@](C)(O)C5)nc(OC[C@@]56CCCN5[C@H](COC(=O)N5CCC(OCCC#Cc7cccc8c7n(C)c(=O)n8C7CCC(=O)NC7=O)CC5)CC6)nc4c3F)c12 (stereo partly drawn) [Compound 370, ((3S,7aS)-7a-(((7-(8-Ethyl-7-fluoro-3-hydroxynaphthalen-1-yl)-8-fluoro-4-((R)-3-hydroxy-3-methylpiperidin-1-yl)pyrido[4,3-d]pyrimidin-2-yl)oxy)methyl)hexahydro-1H-pyrrolizin-3-yl)methyl4-((4-(1-(2,6-dioxopiperidin-3-yl)-3-methyl-2-oxo-2,3-dihydro-1H-benzo[d]imidazol-4-yl)but-3-yn-1-yl)oxy)piperidine-1-carboxylate] | – | < 10 nM | 1 to 10 nM | < 100 nM |
| CCc1c(F)ccc2cc(O)cc(-c3ncc4c(N5CCC[C@@](C)(O)C5)nc(OC[C@@]56CCCN5[C@H](COC(=O)N5CCC(OCCC#Cc7ccc8c(c7)n(C)c(=O)n8C7CCC(=O)NC7=O)CC5)CC6)nc4c3F)c12 (stereo partly drawn) [Compound 371, ((3S,7aS)-7a-(((7-(8-ethyl-7-fluoro-3-hydroxynaphthalen-1-yl)-8-fluoro-4-((R)-3-hydroxy-3-methylpiperidin-1-yl)pyrido[4,3-d]pyrimidin-2-yl)oxy)methyl)hexahydro-1H-pyrrolizin-3-yl)methyl 4-((4-(1-(2,6-dioxopiperidin-3-yl)-3-methyl-2-oxo-2,3-dihydro-1H-benzo[d]imidazol-5-yl)but-3-yn-1-yl)oxy)piperidine-1-carboxylate] | – | < 10 nM | 1 to 10 nM | < 100 nM |
| C#Cc1c(F)ccc2cc(O)cc(-c3ncc4c(N5CCC[C@@](C)(O)C5)nc(OC[C@@]56CCCN5[C@H](COC(=O)N5CCC(OCC#Cc7cccc8c7n(C)c(=O)n8C7CCC(=O)NC7=O)CC5)CC6)nc4c3F)c12 (stereo partly drawn) [Compound 372, ((3S,7aS)-7a-(((7-(8-ethynyl-7-fluoro-3-hydroxynaphthalen-1-yl)-8-fluoro-4-((R)-3-hydroxy-3-methylpiperidin-1-yl)pyrido[4,3-d]pyrimidin-2-yl)oxy)methyl)hexahydro-1H-pyrrolizin-3-yl)methyl 4-((3-(1-(2,6-dioxopiperidin-3-yl)-3-methyl-2-oxo-2,3-dihydro-1H-benzo[d]imidazol-4-yl)prop-2-yn-1-yl)oxy)piperidine-1-carboxylate] | – | 10 to 100 nM | 1 to 10 nM | < 100 nM |
